Data on three molecules can be found in patent US20090162315A1 (priority 2004, published 2009).

Assay [1] deals with T84 human colon-carcinoma cells. Format: cell-based.
Assay [2] has the same test system. Format: cell-based. The source holds these as a separate data set.
Assay [3] has the same test system. Format: cell-based. The source holds these as a separate data set.
The next assay concerns patients with MPE. Conditions: in vivo; cited from earlier work.

“And” between values parts separate entries of the source, which are not always exact repeats. Identical values can stand only once.

Regarding `N.N.[Cl][Pt][Cl]` [Cisplatin, cis-diaminodichloroplatinum], the “TER (Ω/cm^2)” value in assay [1] is 800 Ω/cm^2 and 750 Ω/cm^2. For the same molecule, in assay [2], the “Δ Isc to CCh (μA/cm2)” value was 20 μA/cm2 and the “Δ Isc to Fsk (% of control)” value is 90 % of control. Further, the “^51Cr-EDTA flux (nml · h · cm^2)” value in assay [3] was determined as 2.8 nml · h · cm^2.

In the case of Staphylococcal enterotoxin B [SEB], in assay [2], the “Δ Isc to CCh (μA/cm2)” value came to 23 μA/cm2 and the “Δ Isc to Fsk (% of control)” value is 95 % of control.

On to bleomycin, for which the “Response rate in MPE” value in the assay on patients with MPE is listed as 50%.
